The text below walks through data of article PMC9452538, “The antimicrobial peptide LI14 combats multidrug-resistant bacterial infections” (Communications Biology, 2022).

One assay has as its system MDR E. coli B2. In words: Checkerboard assay with LI14. The assay is classed as cell-based, Escherichia coli. To be noted: for FIC index: antibiotic in combination with LI14, checkerboard 8 × 8, 18 h, ≤0.5 = synergy; for Potentiation: antibiotic potentiation in the presence of ¼ MIC of LI14; for MICa of antibiotic: in the absence of LI14; for MICb of antibiotic: in the presence of ¼ MIC of LI14. On the procedure: (§1) Through checkerboard assay using two-fold serially diluted drugs (8 × 8 matrix), we evaluated the synergistic effects of LI14 with different mechanisms of antibiotics. The absorbance of cultures at 600 nm was determined by a Microplate reader after 18 h of incubation with (1.5 × 10^6 CFUs/mL) bacterial suspension. The FIC index (FICI) was calculated by performing two biological replicates for each combination. The formula is as follows: FIC index = FICIa + FICIb = MICab/MICa + MICba/Mb. An FIC index of ≤0.5 indicates synergy.
(§2) a/bMICs of antibiotics in the absence or presence of ¼ MIC of LI14.
(§3) cDegree of antibiotics potentiation in the presence of ¼ MIC of LI14.
(§4) –, none of potentiation activity.

The test system of assay [1] is sensitive E. coli ATCC 25922. In words: Checkerboard assay with LI14. The assay is classed as cell-based, Escherichia coli. The following applies: for FIC index: antibiotic in combination with LI14, checkerboard; for MICa of antibiotic: in the absence of LI14. On the procedure: as §1, §2, §3, §4
The subject of another assay is S. aureus ATCC 29213. In words: Resistance development study, serial passages. The class given is cell-based, Staphylococcus aureus. To be noted: 80 serial passages at sub-inhibitory concentration (0.5-fold MIC). On the procedure: (§5) The ability of LI14 peptide to induce resistance was studied as previously described. Resistance to the therapeutically important drugs rifampicin and ciprofloxacin was measured using S. aureus ATCC 29213 and E. coli ATCC 25922 as test strains. The middle and final MICs were monitored after eighty such serial passages exposed to the tested medicines (0.5-fold MIC), and the fold change in MIC increase was recorded.

Another assay deals with E. coli B2. In words: Neutropenic mouse thigh infection model. The assay is classed as in vivo, CD-1 mice. To be noted: RIF 20 mg/kg i.p., 48 h. Here is the method:
Female CD-1 mice (n = 6 biologically independent animals per group) were first given cyclophosphamide (two consecutive injections of 150 and 100 mg kg^−1 at 4 and 1 day before infection) to construct neutropenia models. The mice’s right thighs were then injected with 100 μL MRSA T144 or E. coli B2 suspensions (10^5 CFUs per mouse). Post-infection of 1 h, 100 μL LI14 peptide (10 or 20 mg/kg), ampicillin/rifampicin (20 mg/kg) or a combination of LI14 with ampicillin/ rifampicin (10 + 20 mg/kg) were given by intraperitoneal injection. All mice were euthanized 48 h after drug administration, and right thigh muscle tissue was removed aseptically, homogenized, serially diluted, and plated on MHA to qualify bacterial loads after overnight incubation at 37 °C.

A further assay relates to MRSA T144. In words: Checkerboard assay with LI14. The assay is classed as cell-based, Staphylococcus aureus. Here is the method: as §1, §2, §3, §4
Another assay deals with E. coli ATCC 25922. In words: Resistance development study, serial passages. The assay is classed as cell-based, Escherichia coli. To be noted: 80 serial passages at sub-inhibitory concentration (0.5-fold MIC). Here is the method: as §5
Where [2] appears, read: in the presence of ¼ MIC of LI14.

On to `CO[C@H]1/C=C/O[C@@]2(C)Oc3c(C)c(O)c4c(O)c(c(/C=N/N5CCN(C)CC5)c(O)c4c3C2=O)NC(=O)/C(C)=C\C=C\[C@H](C)[C@H](O)[C@@H](C)[C@@H](O)[C@@H](C)[C@H](OC(C)=O)[C@@H]1C` [Rifampicin], for which the FIC index (in the assay on MDR E. coli B2; in assay [1]) was less than 0.078 in each case. The Potentiation (in the assay with MDR E. coli B2; in assay [1] (setting [2])) was more than 64 fold throughout. The MICa of antibiotic (in the assay with MDR E. coli B2; in assay [1]) was more than 128 µg/mL throughout. Besides, the MICb of antibiotic (in the assay on MDR E. coli B2; in assay [1] (setting [2])) was 2 µg/mL each time. Moreover, the “Increase in MIC after serial passages” value with S. aureus ATCC 29213 was 1024 fold. Moreover, the “Bacterial load in thigh” value in the assay on E. coli B2 (animal 1) is 6.89 Log10CFUs/thigh; in the assay with E. coli B2 (animal 2), 6.97 Log10CFUs/thigh; with E. coli B2 (animal 3) it was 7.76 Log10CFUs/thigh; with E. coli B2 (animal 4), 7.96 Log10CFUs/thigh; in the assay on E. coli B2 (animal 5) it was 6.83 Log10CFUs/thigh; with E. coli B2 (animal 6), 6.97 Log10CFUs/thigh.

As for `O=C(O)c1cn(C2CC2)c2cc(N3CCNCC3)c(F)cc2c1=O` [Ciprofloxacin], the FIC index in the assay on MDR E. coli B2 was determined as 0.188; in assay [1], 1.5; in the assay with MRSA T144 (antibiotic in combination with LI14, checkerboard), 2.0. The Potentiation in the assay with MDR E. coli B2 was 8 fold. The results for the MICa of antibiotic (in the assay with MDR E. coli B2; in assay [1]; with MRSA T144 (in the absence of LI14)) were 32 µg/mL, 0.008 µg/mL and 2 µg/mL, respectively. In addition, the MICb of antibiotic in the assay on MDR E. coli B2 worked out at 4 µg/mL; in assay [1] (setting [2]), 0.008 µg/mL; in the assay with MRSA T144 (setting [2]), 2 µg/mL. In addition, the “Increase in MIC after serial passages” value in the assay with E. coli ATCC 25922 is reported as 256 fold.
